Results reported in the supplement of paper PMC10307832.

The cell lines below were run with COC1=CC=C(C=C1)COC2=C(C=C(C=C2)CC3=CN=C(N=C3N)N)OC [GW-2580] + CC(=O)Nc1cccc(-n2c(=O)n(C3CC3)c(=O)c3c(Nc4ccc(I)cc4F)n(C)c(=O)c(C)c32)c1 [Trametinib] (partner 0.02 µM) (assay: relative viability (nuclei count vs DMSO), 5 days (fraction); higher = more cells survive). Conditions: first compound 0.08 µM.
Outline: (§1)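 Lung cancer cell lines in 1536-well plates got either a single drug or a fixed anchor-drug dose together with five library-drug doses (not always all listed) in √10 steps, by pin tool, on the day after seeding. Nuclei were counted after 5 days, and relative viability is the treated-to-vehicle ratio of nuclei counts. Values are medians of duplicate plates.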

Cell Line	relative viability
NCI-H2342	0.805
NCI-H727	0.417
NCI-H1650	0.623
NCI-H1993	0.507
SW 1573	0.535
NCI-H838	0.576
LCLC-103H	0.725
NCI-H520	0.736
NCI-H2126	0.547
EMC-BAC-2	0.805
NCI-H2085	0.526
HCC-366	0.344
NCI-H1666	0.846
NCI-H596	0.806
LK-2	0.918
NCI-H2087	0.178
NCI-H1648	0.416
SK-MES-1	0.585
H3255	0.512

Cell Line	relative viability
COR-L23	0.684
COR-L 105	0.404
LOU-NH91	0.796
ChaGo-K-1	0.921
NCI-H2170	0.994
NCI-H2405	0.68
HOP-62	0.406
HCC-44	1.04
NCI-H522	0.804
LU99A	0.668
BEN	1.05
HARA	0.753
SW 900	0.711
HCC-78	0.838
NCI-H322M	0.466
LCLC-97TM1	0.189
NCI-H2009	0.284
NCI-H1395	0.975
NCI-H1793	0.467

Same assay, conditions: first compound 0.8 µM

Cell Line	relative viability
NCI-H2342	0.889
NCI-H727	0.382
NCI-H1650	0.533
NCI-H1993	0.576
SW 1573	0.598
NCI-H838	0.514
LCLC-103H	0.716
NCI-H520	0.606
NCI-H2126	0.575
EMC-BAC-2	0.988
NCI-H2085	0.515
HCC-366	0.401
NCI-H1666	0.767
NCI-H596	0.979
LK-2	0.933
NCI-H2087	0.204
SK-MES-1	0.491
H3255	0.627
COR-L23	0.632

Cell Line	relative viability
COR-L 105	0.409
LOU-NH91	0.857
ChaGo-K-1	0.921
NCI-H2170	1.01
NCI-H2405	0.586
HOP-62	0.412
HCC-44	1.06
NCI-H522	0.673
LU99A	0.646
BEN	1.1
HARA	0.714
SW 900	0.785
HCC-78	0.844
NCI-H322M	0.485
LCLC-97TM1	0.196
NCI-H2009	0.262
NCI-H1395	0.969
NCI-H1793	0.425

Same assay, conditions: first compound 2.53 µM

Cell Line	relative viability
NCI-H2342	0.783
NCI-H727	0.364
NCI-H1650	0.579
NCI-H1993	0.522
SW 1573	0.532
NCI-H838	0.411
LCLC-103H	0.64
NCI-H520	0.608
NCI-H2126	0.5
NCI-H2085	0.484
HCC-366	0.295
NCI-H1666	0.796
NCI-H596	0.689
LK-2	0.686
NCI-H2087	0.2
NCI-H1648	0.405
SK-MES-1	0.522
H3255	0.44
COR-L23	0.549

Cell Line	relative viability
COR-L 105	0.418
LOU-NH91	0.738
ChaGo-K-1	0.881
NCI-H2170	0.924
NCI-H2405	0.596
HOP-62	0.359
HCC-44	0.986
NCI-H522	0.656
LU99A	0.499
BEN	0.898
HARA	0.59
SW 900	0.759
HCC-78	0.644
NCI-H322M	0.428
LCLC-97TM1	0.192
NCI-H2009	0.266
NCI-H1395	0.988
NCI-H1793	0.344

Same assay, conditions: first compound 8 µM

Cell Line	relative viability
NCI-H2342	0.83
NCI-H727	0.383
NCI-H1650	0.599
NCI-H1993	0.519
SW 1573	0.614
NCI-H838	0.632
LCLC-103H	0.637
NCI-H520	0.539
NCI-H2126	0.649
EMC-BAC-2	0.856
NCI-H2085	0.638
HCC-366	0.412
NCI-H1666	0.872
NCI-H596	0.795
LK-2	0.904
NCI-H2087	0.227
NCI-H1648	0.439
SK-MES-1	0.503
H3255	0.553

Cell Line	relative viability
COR-L23	0.67
COR-L 105	0.442
LOU-NH91	0.827
ChaGo-K-1	0.867
NCI-H2170	0.857
NCI-H2405	0.563
HOP-62	0.378
HCC-44	0.959
NCI-H522	0.753
LU99A	0.462
BEN	0.979
HARA	0.274
SW 900	0.896
HCC-78	0.768
NCI-H322M	0.59
LCLC-97TM1	0.196
NCI-H2009	0.273
NCI-H1395	1.08
NCI-H1793	0.464

The cell lines below were run with Cc1cnc(Nc2ccc(OCCN3CCCC3)cc2)nc1Nc1cccc(S(=O)(=O)NC(C)(C)C)c1 [Fedratinib] + CC(=O)c1c(C)c2cnc(Nc3ccc(N4CCNCC4)cn3)nc2n(C2CCCC2)c1=O [Palbociclib] (partner 0.5 µM) in the same assay as above. Conditions: first compound 0.1 µM.
Outline: as §1

Cell Line	relative viability
NCI-H2342	0.531
NCI-H727	0.483
NCI-H1650	0.299
NCI-H1993	0.654
SW 1573	0.41
NCI-H838	0.197
LCLC-103H	0.479
NCI-H520	0.149
NCI-H2126	0.319
EMC-BAC-2	0.533
NCI-H2085	0.447
HCC-366	0.603
NCI-H1666	0.636
LK-2	0.55
NCI-H2087	0.23
NCI-H1648	0.257
SK-MES-1	0.339
H3255	0.277
COR-L23	0.303

Cell Line	relative viability
COR-L 105	0.393
LOU-NH91	0.573
ChaGo-K-1	0.966
NCI-H2170	0.379
NCI-H2405	0.486
HOP-62	0.437
HCC-44	0.95
NCI-H522	0.847
LU99A	0.469
BEN	0.473
HARA	0.261
SW 900	0.547
HCC-78	0.47
NCI-H322M	0.487
LCLC-97TM1	0.215
NCI-H2009	0.185
NCI-H1395	0.599
NCI-H1793	0.316
ABC-1	0.691

Same assay, conditions: first compound 0.3162 µM

Cell Line	relative viability
NCI-H2342	0.606
NCI-H727	0.652
NCI-H1650	0.408
NCI-H1993	0.63
SW 1573	0.373
NCI-H838	0.228
LCLC-103H	0.502
NCI-H520	0.214
NCI-H2126	0.339
EMC-BAC-2	0.503
NCI-H2085	0.483
HCC-366	0.355
NCI-H1666	0.657
LK-2	0.581
NCI-H2087	0.24
NCI-H1648	0.262
SK-MES-1	0.32
H3255	0.303
COR-L23	0.26

Cell Line	relative viability
COR-L 105	0.41
LOU-NH91	0.544
ChaGo-K-1	0.814
NCI-H2170	0.363
NCI-H2405	0.536
HOP-62	0.426
HCC-44	0.968
NCI-H522	0.893
LU99A	0.382
BEN	0.429
HARA	0.301
SW 900	0.514
HCC-78	0.443
NCI-H322M	0.473
LCLC-97TM1	0.235
NCI-H2009	0.254
NCI-H1395	0.561
NCI-H1793	0.319
ABC-1	0.704

Same assay, conditions: first compound 1 µM

Cell Line	relative viability
NCI-H2342	0.593
NCI-H727	0.624
NCI-H1650	0.288
NCI-H1993	0.906
SW 1573	0.302
NCI-H838	0.164
LCLC-103H	0.477
NCI-H520	0.164
NCI-H2126	0.369
EMC-BAC-2	0.489
NCI-H2085	0.423
HCC-366	0.315
NCI-H1666	0.629
LK-2	0.608
NCI-H2087	0.258
NCI-H1648	0.25

Cell Line	relative viability
SK-MES-1	0.271
H3255	0.318
COR-L23	0.131
COR-L 105	0.405
LOU-NH91	0.543
ChaGo-K-1	0.961
NCI-H2170	0.344
NCI-H2405	0.463
HOP-62	0.393
HCC-44	0.983
NCI-H522	1.03
LU99A	0.392
BEN	0.471
HARA	0.214
SW 900	0.47
HCC-78	0.476
